# Patent US9493833B1, “Methods for preventing induced synthesis of proteasomes in human cells” (THE REGENTS OF THE UNIVERSITY OF CALIFORNIA, priority 2009, dated 2016)
# Where a SMILES comes first, the peptide text is derived from it. The star is where a group is joined. Cbz = O=C(OCc1ccccc1)*; CH2F = FC*
# Tests used:
# [1] = tested on: PSM genes (PSMA7, PSMB4, PSMB7, PSMC1, PSMC4, PSMD1, PSMD12); assay: mRNA levels of representative PSM genes by quantitative RT-PCR in LNCaP and HT-29 cells treated with proteasome inhibitors or MLN4924; format: cell-based, human; settings: 10 hrs, normalized to GAPDH, DMSO set to 1
# Method: (§1) The human prostate cancer LNCaP and colon cancer HT29 cell lines were incubated with different proteasome inhibitors (MG132, YU101, and bortezomib) or the Nedd8 pathway inhibitor MLN4924 (Soucy et al., 2009, Nature, 458, 732-736). Prostate cancer LNCaP and colon cancer HT-29 cells were treated with the indicated concentrations of proteasome inhibitors (MG132, YU101, and Bortezomib) or the Nedd8 pathway inhibitor (MLN4924) for 10 hrs, and mRNA levels of representative PSM genes were analyzed by quantitative RT-PCR (FIGS. 1A-1C). The values were normalized to GAPDH and for each cell line the DMSO treated sample was set to 1. Error bars denote SD (n=3). […] MLN4924 works by inhibiting the Nedd8-activating enzyme, the result of which is the accumulation of cullin-RING ligase (CRL) substrates (Soucy et al., 2009).
# (§2) RNA was isolated using the RNeasy kit (Qiagen). cDNA was prepared using the Superscript III first strand synthesis kit (Invitrogen) according to the manufacturer's recommendations. Quantitative PCR (qPCR) was performed using the SYBR GreenER supermix (Invitrogen).
# NQO1 = NQO1 mRNA level by quantitative RT-PCR in LNCaP and HT-29 cells; format: cell-based, human; settings: 10 hrs, same treatment conditions
# Method: as §1, §2
# proteasome = biological target: T1, proteasome (Mus musculus, UniProt O09061+O55234); assay: Proteasome activity recovery assay in WT and Nrf1−/− MEFs; format: cell-based; settings: YU101 300 nM 1 hr then wash-off, single-phase exponential curve fit
# T1 construct: endogenous in cells; host or cells: WT and Nrf1-/- mouse embryonic fibroblasts, immortalized with shRNA against p19ARF
# Method: Cells were frozen at different time points as indicated and were used for proteasome activity assays as described herein. For each time point, the results are normalized to DMSO-treated control in the case of hatched lines and to CHX-treated control in the case of solid lines. Error bars denote SD (n=3). […] The results were normalized to DMSO-treated control for each cell type. Error bars denote S.E.M. (n=2). […] The next day, the cells were treated with indicated concentrations of YU101 and the pan-caspase inhibitor Z-VAD-FMK, and further incubated for 72 hrs. The cell viability was then assessed using the CellTiter-Glo method (FIG. 12A). The results were normalized to DMSO-treated control which was set to 100% in each case. Error bars denote S.E.M. (n=2). […] The cell lysates were used for immunoblotting to detect the levels of Nrf1 (with the antibody raised against N-terminus) and cleaved caspase-3. β-actin protein levels were used as loading control. […] The cells were then washed with PBS thrice and allowed to recover in fresh medium. At definite time points, the cells were freeze-thawed in TE buffer (20 mM Tris pH 8, 5 mM EDTA) and subsequently used for measuring proteasome activity as described previously (Demo et al., 2007).
# cleaved caspase-3 = assay: Immunoblot of cleaved caspase-3 in MDA-MB-231 and U2OS cells; format: cell-based, human; settings: Nrf1-depleted cells; YU101 48 hrs (MDA-MB-231) or 24 hrs (U2OS)
# Method: (§3) HT29 cells were treated with either MG132 (2 μM), YU101 (100 nM) or Bortezomib (40 nM) for 1 hr after which the drugs were washed off and the cells were allowed to recover in the absence or presence of 50 μg/ml cycloheximide (CHX) (FIG. 11A). Cells were frozen at different time points as indicated and were used for proteasome activity assays as described herein. For each time point, the results are normalized to DMSO-treated control in the case of hatched lines and to CHX-treated control in the case of solid lines. Error bars denote SD (n=3). WT and Nrf1^−/− MEFs were treated with either MG132 (50 μM) or YU101 (300 nM) for an hour after which the drugs were washed off and proteasome activity was measured for cells collected at different time points as indicated (FIG. 11A). […] The results were normalized to DMSO-treated control for each cell type. Error bars denote S.E.M. (n=2). MDA-MB-231 and U2OS cells were transduced with retrovirus expressing either sh-Nrf1 or vector control, and 48 hrs later were seeded in to 96-well plates. The next day, the cells were treated with indicated concentrations of YU101 and the pan-caspase inhibitor Z-VAD-FMK, and further incubated for 72 hrs. The cell viability was then assessed using the CellTiter-Glo method (FIG. 12A). The results were normalized to DMSO-treated control which was set to 100% in each case. Error bars denote S.E.M. (n=2). […]
# [2] = tested on: MDA-MB-231 and U2OS cells; assay: CellTiter-Glo cell viability with YU101, sh-Nrf1 and Z-VAD-FMK; format: cell-based, human; settings: 72 hrs
# Method: as §3, with “MDA-MB-231 and U2OS cells were transduced with retrovirus expressing either sh-Nrf1 or vector control, and 48 hrs later were seeded in to 96-well plates. The next day, the cells were treated with indicated concentrations of YU101 and the pan-caspase inhibitor Z-VAD-FMK, and further incubated for 72 hrs.” left out, “12A).” for “12A). The results were normalized to DMSO-treated control which was set to 100% in each case. Error bars denote S.E.M. (n=2).”
# Cells in 96-well plates were treated with different agents as required and cell viability was assessed using the Cell-Titer Glo kit (G7572; Promega) according to the protocol recommended by the manufacturer. By employing a luminescence read-out, this kit quantifies the level of ATP which is proportional to the number of viable cells.
Compound,mRNA levels of PSM genes [1],NQO1 mRNA (Nrf2 target gene) (NQO1),time taken to recover half of the inhibited activity (proteasome; Nrf1−/− MEFs) [h],time taken to recover half of the inhibited activity (proteasome; WT MEFs) [h],level of cleaved caspase-3 (cleaved caspase-3),effect of co-treatment on sensitization to YU101 killing [2]
NS(=O)(=O)OC[C@@H]1C[C@@H](n2ccc3c(N[C@H]4CCc5ccccc54)ncnc32)C[C@@H]1O [MLN4924],failed to appreciably induce the PSM genes,"activation of its downstream target genes, as observed for NQO1",–,–,–,–
CC(=O)NC(CCc1ccccc1)C(=O)NC(CC(C)C)C(=O)NC(Cc1ccccc1)C(=O)NC(CC(C)C)C(=O)C1(C)CO1 (stereo not shown) [YU101],robustly induce mRNA levels of several PSM genes,–,15.96 ± 5.49,6.92 ± 1.64,elicited an enhanced level of cleaved caspase-3,–
COC(=O)C[C@H](NC(=O)[C@H](C)NC(=O)[C@@H](NC(=O)OCc1ccccc1)C(C)C)C(=O)CF [Z-VAD-FMK] (Cbz-Val-Ala-Asp(OMe)-CH2F),–,–,–,–,–,this effect was blunted
